{
  "source": "patent US20240307497A1",
  "about": "“ADIPONECTIN ALONE OR IN COMBINATION WITH EXTRACORPOREAL PHOTOPHERESIS (ECP) FOR IMMUNE RELATED ADVERSE EVENTS OF IMMUNE CHECKPOINT INHIBITORS” (Mallinckrodt Pharmaceuticals Ireland Limited, priority 2022, published 2024)",
  "key": {"[1]": {"test_system": "B16.F10 melanoma with DSS/anti-PD1-mediated colitis", "test": "Combined colitis and B16.F10 tumor model", "assay_type": "in vivo, C57BL/6 mice", "description": "C57BL/6 mice were intravenously injected with 10 000 B16.F10luc/GFP melanoma cells in the tail vein and received 3% Dextran Sodium Sulfate (DSS colitis grade, 36-50 kDa; MP Biomedicals) in drinking water from day 9-12, followed by normal drinking water. Mice were treated with 0.2 mg ICI or the respective isotype control on days 1, 4, 8, 16 and 22. ECP-treated splenocytes were transplanted (107; i.v.) on days 13, 18 and 22, daily steroid was given (i.p.) from days 13-22. Mice were imaged with BLI on day 23, organs and serum were harvested on day 24.\nLuciferin (D-luciferin, potassium salt (S)-4,5-Dihydro-2-(6-hydroxy-2-benzothiazolyl)-4-thiazolecarboxylic acid potassium salt; Biosynth) was dissolved in H2O and injected i.p. at a concentration of 150 μg/g body weight. After 10 minutes, the mice were imaged using an IVIS Lumina III in vivo imaging system (PerkinElmer) with an exposure time of 2 minutes. The luciferase signal was quantified in photons per second per mouse. Acquisition, analysis, and visualization of BLI were performed using Living Image Software (PerkinElmer)."}, "B16.F10 melanoma [2]": {"test_system": "B16.F10 melanoma", "test": "B16.F10 intravenous/metastatic tumor model", "assay_type": "in vivo, C57BL/6 mice", "settings": "added to anti-PD1, vs anti-PD1-therapy alone", "description": "C57BL/6 mice were intravenously injected with 10 000 B16.F10luc/GFP melanoma cells in the tail vein and treated with 0.2 mg ICI or the respective isotype control on day 1, 4, 8, 16 and 22. ECP-treated splenocytes were transplanted (107; i.v.) on days 13, 18, and 22, and daily steroids were given (i.p.) from days 13-22. Survival of the mice was monitored until day 60."}, "[3]": {"test_system": "BRAF^V600E-mutant 4434 melanoma", "test": "4434 intravenous tumor model", "assay_type": "in vivo, C57BL/6 mice", "settings": "added to anti-PD1, second melanoma model"}, "[4]": {"test_system": "s.c. B16.F10-OVA melanoma and MC38-OVA^dim colorectal tumors", "test": "OVA-transgenic subcutaneous tumor models", "assay_type": "in vivo, mice", "settings": "OT-I and CD8^+OVA-Dextramer^+ T-cells, d16", "description": "C57BL/6 recipients were transplanted subcutaneously with 1×106 MC38-OVAdim or 0.5×10^6 MC38 cells into the shorn right flank. Recipients were treated i.p. with 0.2 mg ICI on days 1, 4, 8, 11, 15. ECP-treated splenocytes were transplanted (107; i.v.) on days 6, 11 and 15, daily steroids were given (i.p.) from days 6-15. On day 16, serum samples were harvested by retroorbital bleeding, the mice were euthanized and tumors were resected for further studies.\nCD45.1 recipients were transplanted subcutaneously with 1×106 B16.F10-OVA cells into the shorn right flank and treated i.p. with 0.2 mg ICI on day 1, 4, 8, 11, 15. ECP-treated splenocytes were transplanted (107; i.v.) on days 6, 11 and 15, daily steroids were given (i.p.) from days 6-15. OT-I splenocytes (CD45.2) were activated on day 2 at a density of 2×10^6 cells/mL in the presence of 100 U/mL rmIL-2 (Peprotech) and 0.1 μg/mL OVA257-264 peptide (Sigma) in RPMI supplemented with 10% FCS, 1% P/S, 55 μM beta-Mercaptoethanol (Gibco) and 4 mM glutamine (Gibco). Splenocytes were washed on day 4 and replated with 100 U/mL rmIL-2 at 2×10^6 cells/mL. […]\nFor quantification of adiponectin concentrations in murine serum specimen, blood was harvested by retroorbital bleeding and serum was isolated by centrifugation. Adiponectin concentrations were measured using Adiponectin Mouse ELISA Kit (ThermoFisher) at 20,000-fold dilution."}, "B16.F10 melanoma [5]": {"test_system": "B16.F10 melanoma", "test": "Recall immunity experiment", "assay_type": "in vivo, mice", "settings": "T-cells of treated donors into secondary B16.F10 recipients", "excerpt": "For evaluation of recall immunity, T-cell donor mice were challenged with 104 B16.F10 melanoma cells (i.v.) and treated with anti-PD1 (days 1, 3, 6, 9, 12), ECP (days 3, 7, 12) or steroids (days 3-12). Secondary recipients were sub-lethally irradiated with 6 Gy TBI and injected i.v. with 104 B16.F10 or 2×10^6 4434 melanoma cells. Splenic T-cells were enriched from T-cell donors on day 13 using the Pan T-cell Isolation Kit II (mouse, Miltenyi) and 1×105 T-cells were transplanted i.v. into secondary recipients on day 3 following tumor injection. Untreated melanoma mice served as control."}},
  "data": [
    {"smiles": "C[C@]12C=CC(=O)C=C1CC[C@@H]1[C@@H]2[C@@H](O)C[C@@]2(C)[C@H]1CC[C@]2(O)C(=O)CO", "note": "[Steroids, Prednisolone]", "values": [
      {"measurement": "colitis in melanoma-bearing mice", "setting": "[1]; d23", "value": "similarly reduced"},
      {"measurement": "tumor burden / control of tumor growth", "setting": "[1]; luminescence imaging and melanoma transcripts in lungs", "value": "higher tumor burden"},
      {"measurement": "survival", "setting": "B16.F10 melanoma [2]", "value": "reduced survival"},
      {"measurement": "survival", "setting": "[3]", "value": "findings were reproduced"},
      {"measurement": "tumor-specific T-cells in the tumor microenvironment", "setting": "[4]", "value": "reduction of adoptively-transferred OT-I T-cells and endogenous CD8^+OVA-Dextramer^+ T-cells"},
      {"measurement": "recall-immunity of transferred T-cells", "setting": "B16.F10 melanoma [5]", "value": "this was not the case"}
    ]}
  ]
}
